Experimental data published in patent US20240217957A1, “HETEROCYCLIC COMPOUND AND USE THEREOF” (TAKEDA PHARMACEUTICAL COMPANY LIMITED, priority 2022, published 2024).

Molecular target: T1, human OX2 receptor (Homo sapiens, UniProt O43614)
T1 construct: expressed in transfected cells
T1 sequence (O43614 1-444): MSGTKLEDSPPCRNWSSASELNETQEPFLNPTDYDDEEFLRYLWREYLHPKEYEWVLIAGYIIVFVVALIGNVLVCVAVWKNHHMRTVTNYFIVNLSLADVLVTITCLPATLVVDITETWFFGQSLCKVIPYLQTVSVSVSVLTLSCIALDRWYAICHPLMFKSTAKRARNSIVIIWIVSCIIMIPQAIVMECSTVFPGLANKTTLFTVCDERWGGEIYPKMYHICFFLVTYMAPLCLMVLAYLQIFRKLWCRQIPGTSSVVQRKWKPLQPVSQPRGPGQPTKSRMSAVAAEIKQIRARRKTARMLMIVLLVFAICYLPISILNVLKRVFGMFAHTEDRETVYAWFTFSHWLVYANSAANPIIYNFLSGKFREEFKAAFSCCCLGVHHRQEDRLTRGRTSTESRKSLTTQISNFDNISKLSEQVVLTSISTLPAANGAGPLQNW
Test: Measurement of orexin type 2 receptor agonist activity (calcium fluorescence, Fluo-4 AM, FDSS)
Format: cell-based
Conditions: compound at 3 μM; CHO cells forcibly expressing human OX2 receptor; DMSO = 0%, 10 nM orexin A (human) = 100%
Outline: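 CHO-K1 cells stably expressing human OX2 receptor (residues 1-444) loaded with Fluo-4 AM in HBSS/20 mM HEPES/0.1% BSA with probenecid, 30 min at 37° C. then 30 min at room temperature. After compound addition, calcium fluorescence read for 1 min 40 s; activity (%) scaled to DMSO (0%) and 10 nM orexin A (100%).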

| OX2R agonist activity (3 μM, %) [%] | Structure (SMILES) |
| --- | --- |
| 95 | Cc1cnc([C@@H]2CC(N3C[C@@H](F)[C@H](NS(C)(=O)=O)C3)=NO2)c(-c2c(F)cccc2F)c1 [Example 44, N-[(3R,4R)-1-{(5S)-5-[3-(2,6-difluorophenyl)-5-methylpyridin-2-yl]-4,5-dihydro-1,2-oxazol-3-yl}-4-fluoropyrrolidin-3-yl]methanesulfonamide] |
| 101 | Cc1cnc([C@@H]2CC(N3CC[C@H](NS(C)(=O)=O)C3)=NO2)c(-c2c(F)cc(F)cc2F)c1 [Example 45, N-[(3S)-1-{(5S)-5-[5-methyl-3-(2,4,6-trifluorophenyl)pyridin-2-yl]-4,5-dihydro-1,2-oxazol-3-yl}pyrrolidin-3-yl]methanesulfonamide] |
| 99 | Cc1cnc([C@@H]2CC(N3CC[C@H](NS(=O)(=O)C4(F)CC4)C3)=NO2)c(-c2c(F)cc(F)cc2F)c1 [Example 46, 1-fluoro-N-[(3S)-1-{(5S)-5-[5-methyl-3-(2,4,6-trifluorophenyl)pyridin-2-yl]-4,5-dihydro-1,2-oxazol-3-yl}pyrrolidin-3-yl]cyclopropane-1-sulfonamide] |
| 93 | CCS(=O)(=O)N[C@@H]1CN(C2=NO[C@H](c3ncc(C)cc3-c3c(F)cc(F)cc3F)C2)CC1(F)F [Example 47, N-[(3R)-4,4-difluoro-1-{(5S)-5-[5-methyl-3-(2,4,6-trifluorophenyl)pyridin-2-yl]-4,5-dihydro-1,2-oxazol-3-yl}pyrrolidin-3-yl]ethanesulfonamide] |
| 94 | Cc1cnc([C@@H]2CC(N3C[C@@H](F)[C@H](NS(C)(=O)=O)C3)=NO2)c(-c2c(F)cc(F)cc2F)c1 [Example 48, N-[(3R,4R)-4-fluoro-1-{(5S)-5-[5-methyl-3-(2,4,6-trifluorophenyl)pyridin-2-yl]-4,5-dihydro-1,2-oxazol-3-yl}pyrrolidin-3-yl]methanesulfonamide] |
| 95 | CS(=O)(=O)N[C@@H]1CN(C2=NOC(c3ncc(Cl)cc3-c3c(F)cccc3F)C2)CC1(F)F (stereo partly drawn) [Example 49, N-[(3R)-1-{5-[5-chloro-3-(2,6-difluorophenyl)pyridin-2-yl]-4,5-dihydro-1,2-oxazol-3-yl}-4,4-difluoropyrrolidin-3-yl]methanesulfonamide] |
| 99 | Cc1ccc([C@@H]2CC(N3CC[C@H](NS(C)(=O)=O)C3)=NO2)c(-c2ncc(F)cc2F)c1 [Example 50, N-[(3S)-1-{5-[2-(3,5-difluoropyridin-2-yl)-4-methylphenyl]-4,5-dihydro-1,2-oxazol-3-yl}pyrrolidin-3-yl]methanesulfonamide] |
| 93 | CS(=O)(=O)N[C@@H]1CN(C2=NOC(c3ncc(Br)cc3-c3c(F)cccc3F)C2)CC1(F)F (stereo partly drawn) [Example 52, N-[(3R)-1-{5-[5-bromo-3-(2,6-difluorophenyl)pyridin-2-yl]-4,5-dihydro-1,2-oxazol-3-yl}-4,4-difluoropyrrolidin-3-yl]methanesulfonamide] |
| 98 | Cc1cnc([C@@H]2CC(N3C[C@@H](NS(C)(=O)=O)C(F)(F)C3)=NO2)c(-c2c(F)cc(Cl)cc2F)c1 [Example 53, N-[(3R)-1-{5-[3-(4-chloro-2,6-difluorophenyl)-5-methylpyridin-2-yl]-4,5-dihydro-1,2-oxazol-3-yl}-4,4-difluoropyrrolidin-3-yl]methanesulfonamide] |
| 92 | Cc1cnc([C@@H]2CC(N3C[C@@H](NS(C)(=O)=O)C(F)(F)C3)=NO2)c(-c2c(F)ccc(F)c2F)c1 [Example 54, N-[(3R)-4,4-difluoro-1-{5-[5-methyl-3-(2,3,6-trifluorophenyl)pyridin-2-yl]-4,5-dihydro-1,2-oxazol-3-yl}pyrrolidin-3-yl]methanesulfonamide] |
| 104 | Cc1cnc([C@@H]2CC(N3C[C@@H](NS(=O)(=O)C4CC4)C(F)(F)C3)=NO2)c(-c2c(F)cc(F)cc2F)c1 [Example 55, N-[(3R)-4,4-difluoro-1-{(5S)-5-[5-methyl-3-(2,4,6-trifluorophenyl)pyridin-2-yl]-4,5-dihydro-1,2-oxazol-3-yl}pyrrolidin-3-yl]cyclopropanesulfonamide] |
| 92 | Cc1cnc([C@@H]2CC(N3CC[C@H](NS(=O)(=O)CF)C3)=NO2)c(-c2c(F)cc(F)cc2F)c1 [Example 56, 1-fluoro-N-[(3S)-1-{(5S)-5-[5-methyl-3-(2,4,6-trifluorophenyl)pyridin-2-yl]-4,5-dihydro-1,2-oxazol-3-yl}pyrrolidin-3-yl]methanesulfonamide] |
| 105 | Cc1cnc([C@@H]2CC(N3C[C@H](F)[C@H](NS(C)(=O)=O)C3)=NO2)c(-c2c(F)cc(F)cc2F)c1 [Example 57, N-[(3R,4S)-4-fluoro-1-{(5S)-5-[5-methyl-3-(2,4,6-trifluorophenyl)pyridin-2-yl]-4,5-dihydro-1,2-oxazol-3-yl}pyrrolidin-3-yl]methanesulfonamide] |
| 103 | Cc1cnc([C@@H]2CC(N3C[C@@H](NS(=O)(=O)CF)C(F)(F)C3)=NO2)c(-c2c(F)cc(F)cc2F)c1 [Example 58, N-[(3R)-4,4-difluoro-1-{(5S)-5-[5-methyl-3-(2,4,6-trifluorophenyl)pyridin-2-yl]-4,5-dihydro-1,2-oxazol-3-yl}pyrrolidin-3-yl]-1-fluoromethanesulfonamide] |
| 101 | Cc1cnc(C2(C(F)F)CC(N3C[C@@H](NS(C)(=O)=O)C(F)(F)C3)=NO2)c(-c2c(F)cccc2F)c1 (stereo partly drawn) [Example 59, N-[(3R)-1-{5-(difluoromethyl)-5-[3-(2,6-difluorophenyl)-5-methylpyridin-2-yl]-4,5-dihydro-1,2-oxazol-3-yl}-4,4-difluoropyrrolidin-3-yl]methanesulfonamide] |
| 105 | Cc1cnc([C@@H]2CC(N3C[C@@H](NS(=O)(=O)C(F)F)C(F)(F)C3)=NO2)c(-c2c(F)cc(F)cc2F)c1 [Example 60, N-[(3R)-4,4-difluoro-1-{(5S)-5-[5-methyl-3-(2,4,6-trifluorophenyl)pyridin-2-yl]-4,5-dihydro-1,2-oxazol-3-yl}pyrrolidin-3-yl]-1,1-difluoromethanesulfonamide] |
| 98 | Cc1cnc(C2CC(N3C[C@@H](NS(C)(=O)=O)C(F)(F)C3)=NO2)c(-c2c(F)cccc2Cl)c1 (stereo partly drawn) [Example 61, N-[(3R)-1-{5-[3-(2-chloro-6-fluorophenyl)-5-methylpyridin-2-yl]-4,5-dihydro-1,2-oxazol-3-yl}-4,4-difluoropyrrolidin-3-yl]methanesulfonamide] |
| 101 | Cc1cnc([C@@H]2CC(N3C[C@@H](C)[C@H](NS(C)(=O)=O)C3)=NO2)c(-c2c(F)cc(F)cc2F)c1 [Example 63, N-[(3S,4R)-4-methyl-1-{(5S)-5-[5-methyl-3-(2,4,6-trifluorophenyl)pyridin-2-yl]-4,5-dihydro-1,2-oxazol-3-yl}pyrrolidin-3-yl]methanesulfonamide] |
| 100 | Cc1cnc([C@@H]2CC(N3CC(F)(F)C(C)(NS(C)(=O)=O)C3)=NO2)c(-c2c(F)cc(F)cc2F)c1 (stereo partly drawn) [Example 64, N-(4,4-difluoro-3-methyl-1-{(5S)-5-[5-methyl-3-(2,4,6-trifluorophenyl)pyridin-2-yl]-4,5-dihydro-1,2-oxazol-3-yl}pyrrolidin-3-yl)methanesulfonamide] |
